The source of these data is patent publication US7728146B2, “Enzyme inhibitors” (Probiodrug AG, priority 2006, dated 2010).

Molecules are shown by their SMILES. Where a name gives a salt, the structure may show the parent alone.

In one series the target is DP9 (Homo sapiens, UniProt Q86TI2). The experiment in a line: DP9 assay. Type of series: biochemical. On the procedure: (§1) Determination of IC50 values for DPII and DP9 are done similarly as described for DP IV.
For DP9 Gly Pro-AMC is used as substrate in a final concentration of 0.25 mM.

The target of another series is DP IV (Homo sapiens, UniProt P27487). As to the kind of experiment: Ki and inhibition type, DP IV. In kind it is biochemical. The settings on record: compounds obtained by preparative synthesis. On the procedure:
Measurement of DP IV activities for Ki determination is carried out as described for IC50. For Ki determination samples were analysed in triplicates. 7 serial dilutions of the inhibitor (range calculated from the IC50 determination) in water are analyzed with 4 serial dilutions of the substrate.
Data are analysed by non-linear regression to the inhibitor equations using Graphit software. Ki-value and inhibition type are determined using the inhibitor equation (competitive, partiell competitive, non-competitive) which gives the best fitting results. […]

Another series in a line: Caco-2 transport assay. In kind it is in vitro ADME, human. The conditions noted are these: human, Caco-2, pH 7.5. On the procedure:
(§2) The concentration of compounds in the Caco experiments may be determined from their potency to inhibit recombinant human DP IV.
(§3) Reaction is started by addition of 20 μl rhDP IV and release of pNA was monitored at 405 nm. Samples are analyzed in several dilutions (undiluted, 1:10, 1:[…]). Dilutions are done in the Caco assay buffer. Activity measured with Caco-assay buffer alone is set to 100% and inhibitor concentration is calculated from the dilutions resulting in 20 to 80% inhibition according to the equation for competitive inhibition.
(§4) [formula] • I=inhibitor concentration • v0=velocity of the reaction without inhibitor (Caco assay buffer alone) • vi=velocity of the reaction with inhibitor sample • Ki=Ki-value of the compound • DF=dilution factor of the sample Transport Assay
(§5) The human colon adenocarcinome cell line Caco-2 are grown in 6- or 24-transwell microplates (Costar) for 21 days with MEM-alpha containing 10% FBS and 0.5% Gentamycin (Invitrogen). After 21 days of cultivation integrity of the cell layer are assessed by measurement of the transepitelial electrical resistance.
(§6) Transport measurements are carried out in triplicates at a pH of 7.5. For each compound and direction (apical to basal (a-b), basal to apical (b-a)) two separate experiments are done. Samples are collected from the donor and acceptor compartments at the beginning of the experiment and after 60 min (for 6-well plates, Donor at 0 and 120 min, Acceptor at 15, 30, 60 and 120 min).
(§7) Samples are analyzed in several dilutions for their ability to inhibit human recombinant DP IV and compound concentrations may be calculated using the prior determined Ki-value (see above).
(§8) The permeability coefficient Papp is calculated according to the following equation:
(§9) [formula] • VA=Volume of the acceptor compartment • A=Area of the transwell membrane • t=sampling time • cAt=concentration in the acceptor compartment at sampling time • CDO=concentration in the donor compartment at t=0
(§10) Papp-values>1e-5 cm/s are assessed as good permeable, value<1e-6 cm/s as not permeable. Papp-values in between as medium permeable. Compounds where no significant difference were found between a-b and b-a transport are assessed to be passive transported.

Another series has as its system Caco-2 monolayer. The experiment in a line: Caco-2 transport assay. In kind it is in vitro ADME, human. The settings on record: assessment of permeability and transport type. On the procedure:
as §2, §3, §4, §5, §6, §7, §8, §9, §10

Series [1] concerns liver cell carcinoma cell line Hep-G2. The experiment in a line: Cytotoxicity screening and LD50 determination on Hep-G2 (LDH, CytoTox-One). The settings on record: 100 μM. Type of series: cell-based. The method, then:
Cytotoxicity of the compounds may be screened using the liver cell carcinoma cell line Hep-G2.
After 24 h of cultivation in a 96 well plate (50 000 cells/well) compounds (dissolved in DMSO) are added and cytotoxicity and vitality of the cells are analysed after another 24 h of cultivation using the CytoTox-One Homogenoeous membrane toxicity assay (Promega).
Three concentrations (100 μM, 2 μM, 40 nM) of each compound are analysed in triplicates. The final DMSO concentration was 1%.
For cytotoxicity the LDH activity in the cell culture media after 24 h of incubation are analysed. The untreated control is set to 0% cytotoxicity. For the 100% value LDH activity of lysed untreated cells are analysed.
For viability cell culture media are removed from the cells and all cells are lysed using the lysis buffer. LDH activity is determined and untreated control is set to 100% viability.
For determination of LD50 the liver carcinoma cell line HEP-G2 and the neuroblastoma cell line SY5Y may be used. The effect of 8 serial dilutions of the compounds (highest concentration 1 mM) is investigated as described above.
The cytotoxicity of certain example compounds (in each case prepared by preparative synthesis) was screened using Hep-G2 cells. Compounds were tested in concentrations of 100 μM, 2 μM and 40 nM.

For a further series, the target named is DPII (Homo sapiens, UniProt Q9UHL4). The experiment in a line: DPII assay. In kind it is biochemical. The method, then: as §1
For DPII instead of the HEPES buffer a 0.2 M sodium acetate buffer pH 5.5 is used. As substrate Gly-Pro-AMC is used in a final concentration of 1 mM.

The target in series [2] is dipeptidyl peptidase (DP IV) (UniProt P27487). The experiment in a line: Determination of IC50 against DP IV (hydrolysis of Gly-Pro-pNA). Type of series: biochemical, porcine kidney or recombinant human. The conditions noted are these: compounds obtained by preparative synthesis. The method, then: Determination of IC50 Against DP IV
Substances are screened for inhibition of dipeptidyl peptidase (DP IV) by their ability to inhibit the hydrolysis of the DP IV specific substrate Glycyl-Prolyl-4-Nitroanilide (Gly-Pro-pNA). All compounds are diluted in DMSO and IC50 will be determined with 11 serial dilutions (1:2) starting with an final concentration of 100 μM. The final DMSO concentration in the assay is 5% (v/v). The method was automated using a Tecan Genesis Freedom liquid handler and a Genius Pro (Tecan) microplate reader.
A stock solution of 0.102 M HEPES is prepared. Ionic strength (I=0.32) is adjusted by KCl and pH (pH 7.6) by KOH.
2.16 mM solution of Gly-Pro-pNA in deionized water is prepared.
All samples are dissolved in DMSO preparing a 10 mM stock solution.
DP IV from porcine kidney (pDP IV) or recombinant human DP IV (rhDP IV) is diluted in HEPES buffer to a final activity of approximately 40-50 μU*ml^−1. The DP IV is stored in a cooling rack (4° C.) on the liquid handler.
The assay may becarried out at room temperature using Freedom liquid handler connected with a Genios Pro microplate reader. Each sample is measured in duplicate. Each sample stock solution is prediluted with DMSO in a ratio of 1:5 in a polypropylen 96-well plate. From this predilution 10 serial (1:2) dilutions in DMSO are prepared. 13.5 μl of the 11 DMSO dilutions and DMSO alone are transferred to the measurement microplate (duplicates) and 86.5 μl water, 100 μl HEPES buffer and 50 μl substrate solution are added to each well. The enzymatic reaction is started by addition of 20 μl enzyme solution to each well, and then the microplate is immediately transferred to the microplate reader.
After short mixing (20 s) the release of 4-Nitroanilin (pNA) is monitored at 405 nm for 30 cycles (approx. 18 min).
Post assay calculations are done by the Magellan (Tecan) and Graphit Software. The linear slopes are calculated for each well and averaged for the duplicates. The residue activities are calculated in relation to a sample containing only solvent instead of inhibitor and expressed in %. Residue activities are plotted against the log of inhibitor concentrations and IC50 is calculated by an 4-parameter fitting ranging from 0 to 100%.

A further series has as its system male Sprague Dawley rats. As to the kind of experiment: Circadian courses of activity, feeding and drinking behaviour; body weight, food and fluid consumption during chronic administration. In kind it is in vivo, rat. The settings on record: vs vehicle. On the procedure: Example 130b as hydrochloride salt was dissolved in tap water in concentrations of 0.03, 0.1 and 0.3 mg/ml. Assuming a daily fluid intake of approx. 30 ml per animal (animal's weight: approx. 300 g), these concentrations should result in doses of approx. 3, 10 and 30 mg/kg/day. The solutions were prepared freshly every day. During chronic administration, solution offer was limited to 40 ml per day for each animal.
Imipramine was dissolved 0.5% Natrosol and administered once daily i.p. for 8 days (test group TG 11, see below) with a dose of 15 mg/kg/day in a volume of 1 ml/kg.
216 male Sprague Dawley rats. The animals were 6 weeks old at the start of the study. They were housed in groups of 4 animals (“acute animals”) or in single cages (“chronic animals”) at 12 h/12 h light/dark (start of the light phase at 2 a.m.), 20° C., 60% rH. Animals were provided by Elevage Janvier, France.
During the 7 days lasting period of chronic compound administration, animals were kept singly. On the first day they were kept in single Macrolon home cages. On the next day they were transferred to activity monitoring cages and kept there for 3 days. For the following 3 days they returned to their home cages (single housing).
Animals received the test compound chronically via the drinking fluid. The reference compound Imipramine was given i.p. (one administration per day, one hour before the respective tests). Fluid supply was restricted to 40 ml per day for all test groups. On the first day of chronic test compound exposure, animals were kept singly in standard single home cages to enable an individual assessment of test compound intake. On the second day, animals were transferred to infrared monitoring cages for 3 days. Food and fluid offer were the same as in the home cage. Measuring rearing activity near fluid bottles and food grid enabled an assessment of the time structure of food and water (compound) consumption. Behavioural observation started one hour before the beginning of the dark phase (2 p.m.). After 22 hours, body weight, food and fluid consumption were measured. 2 hours later, the next recording started.
Raw data were provided as computer files accompanied by written protocol sheets. As the animals were still adapting to the environment and administration the time courses of the following parameters were calculated only for the last day of registration: • Food and fluid intake (time %) • Number of feeding and […] bouts • Meal pattern parameters reflecting e.g. the duration and recurrence of feeding and drinking bouts • Total distance travelled (cm/min) • Small movements (cm/min) • Distance travelled with rapid locomotion (cm/min) • Distance travelled with slow locomotion (cm/min) • Immobility (time %) • Use of available space (%) • Locomotor stereotypies (score, first hour of the dark phase only) • Rearing (time %) • Number of rearing acts (N) Feeding and Drinking Bouts and Bout-Related Analysis:
On the basis of high-resolution infrared beam recordings, feeding and drinking is identified by means of beam interruption in the upper frame near to the positions of food or water. Feeding or drinking acts are then defined as temporally contingent behavioural pattern separated from each other by intervals not longer than 0.5 seconds. Normally, several acts form a feeding or drinking bout. The intervals within a bout are definitely shorter than between subsequent bouts. A threshold interval can be set to distinguish between intra-bout and inter-bout intervals.
Stereotyped locomotion was assessed by means of statistical comparisons between the observed locomotor sequences (as described by the movement from one of the 4×4 subsquares to another) and a “random walk”. The comparison is performed at 5 different levels:
The coefficient of locomotor stereotypies (SC, in %) at each level has a value of SC=0 when there are no regularities within the movement pattern (random walk). […]

[3] abbreviates: circadian registration, Imipramine 15 mg/kg/day i.p., Example 130b approx. 3, 10, 30 mg/kg/day.
Setting [4] is: Imipramine 15 mg/kg/day i.p., Example 130b hydrochloride approx. 3, 10, 30 mg/kg/day via drinking fluid.

Sequence of DP9 (Q86TI2 whole entry, species assumed): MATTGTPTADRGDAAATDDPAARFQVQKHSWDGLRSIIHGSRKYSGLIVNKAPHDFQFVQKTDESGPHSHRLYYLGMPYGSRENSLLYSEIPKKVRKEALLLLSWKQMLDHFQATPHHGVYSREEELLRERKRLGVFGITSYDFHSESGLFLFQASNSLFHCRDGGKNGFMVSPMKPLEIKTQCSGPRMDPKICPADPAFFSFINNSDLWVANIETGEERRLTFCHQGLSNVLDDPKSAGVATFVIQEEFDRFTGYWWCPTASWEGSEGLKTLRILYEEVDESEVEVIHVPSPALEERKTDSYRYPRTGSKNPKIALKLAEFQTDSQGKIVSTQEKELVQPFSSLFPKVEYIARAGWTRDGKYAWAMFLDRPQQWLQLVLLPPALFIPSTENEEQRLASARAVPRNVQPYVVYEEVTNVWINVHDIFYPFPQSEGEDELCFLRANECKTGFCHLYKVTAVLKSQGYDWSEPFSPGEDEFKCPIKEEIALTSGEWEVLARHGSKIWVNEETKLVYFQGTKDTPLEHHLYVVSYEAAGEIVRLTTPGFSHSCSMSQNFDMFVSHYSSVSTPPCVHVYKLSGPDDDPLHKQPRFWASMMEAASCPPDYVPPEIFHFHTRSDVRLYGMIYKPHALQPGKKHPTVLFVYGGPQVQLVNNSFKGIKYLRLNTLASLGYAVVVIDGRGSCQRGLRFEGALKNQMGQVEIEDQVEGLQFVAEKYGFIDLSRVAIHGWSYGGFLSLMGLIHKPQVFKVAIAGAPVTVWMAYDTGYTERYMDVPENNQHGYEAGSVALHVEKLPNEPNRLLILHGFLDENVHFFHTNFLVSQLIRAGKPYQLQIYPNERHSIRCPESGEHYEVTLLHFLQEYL
Sequence of DP IV (P27487 whole entry): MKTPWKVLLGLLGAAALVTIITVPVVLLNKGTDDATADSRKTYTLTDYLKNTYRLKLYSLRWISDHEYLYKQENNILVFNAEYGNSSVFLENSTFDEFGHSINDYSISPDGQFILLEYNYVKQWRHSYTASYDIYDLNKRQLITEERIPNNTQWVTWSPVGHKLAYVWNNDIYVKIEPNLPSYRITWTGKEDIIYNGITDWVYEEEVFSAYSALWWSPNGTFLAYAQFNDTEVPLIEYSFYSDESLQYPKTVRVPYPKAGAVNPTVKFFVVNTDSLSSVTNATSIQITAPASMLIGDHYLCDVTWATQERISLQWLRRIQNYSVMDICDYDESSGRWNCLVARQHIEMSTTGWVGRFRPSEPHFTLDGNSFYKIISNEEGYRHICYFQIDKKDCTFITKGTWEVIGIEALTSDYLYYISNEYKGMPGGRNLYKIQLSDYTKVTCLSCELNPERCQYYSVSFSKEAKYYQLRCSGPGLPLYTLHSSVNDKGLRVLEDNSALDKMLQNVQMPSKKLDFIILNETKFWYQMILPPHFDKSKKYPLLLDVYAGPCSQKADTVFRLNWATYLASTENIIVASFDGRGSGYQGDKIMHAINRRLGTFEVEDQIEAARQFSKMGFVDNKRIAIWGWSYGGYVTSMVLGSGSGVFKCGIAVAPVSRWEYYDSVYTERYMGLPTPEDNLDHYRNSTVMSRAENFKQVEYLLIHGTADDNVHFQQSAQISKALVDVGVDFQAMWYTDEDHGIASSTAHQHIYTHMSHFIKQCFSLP

On to `NCc1c(-c2ccc(Cl)cc2Cl)ncn1C(CO)c1ccccc1` (stereo not shown) [Example 126b, 2-[5-aminomethyl-4-(2,4-dichloro-phenyl)-imidazol-1-yl]-2-phenyl-ethanol], for which the IC50 stood at 70.7 µM at DP9 (Gly Pro-AMC 0.25 mM); 20 µM on DPII (sodium acetate buffer pH 5.5, Gly-Pro-AMC 1 mM); 0.145 µM in series [2]. On DP9 (ratio IC50 DP9 / Ki DP IV), the “Selectivity DP9(IC50)/DPIV(Ki)” value was 6,670. The compound also yielded an inhibition constant (Ki) on DP IV of 0.0106 µM. This compound had a Papp A→B in the series “Caco-2 transport assay” (apical to basal) of 22.5 ×10⁻⁶ cm/s. For the same compound, in the series “Caco-2 transport assay” (basal to apical), the basolateral-to-apical permeability (Papp B→A) is 16.5 ×10⁻⁶ cm/s. Besides, the Transport result in the series with Caco-2 monolayer is reported as “good (Papp-values>1e-5 cm/s are assessed as good permeable)”. For the same compound, the “Cytotox 100 μM (%) HEPG2” value in series [1] (24 h, LDH activity in cell culture media, lysed untreated cells = 100%) is 5.8%. Besides, the “Viability 100 μM (%) HEP-G2” value in series [1] (24 h, LDH of lysed cells, untreated control = 100%) stood at 118.8%. This compound also returned an Observed cytotox in series [1] (Hep-G2, observation of the cells) of 10% spheric. The “Selectivity DPII(IC50)/DPIV(Ki)” value at DPII (ratio IC50 DPII / Ki DP IV) is 1,887.
`CN(C)CCCN1c2ccccc2CCc2ccccc21` [Imipramine, Imipramine Hydrochloride, reference compound]: the time immobile result with male Sprague Dawley rats (circadian registration, Imipramine 15 mg/kg/day i.p.) is recorded as “spent more time immobile”. Further, in the series with male Sprague Dawley rats (setting [3]), the “horizontal and vertical (locomotor) activity” value is recorded as “clearly reduced”; the “time accessing food and water (fluid)” value was “lower amount of time”. In the series on male Sprague Dawley rats (first hour of the dark phase, Imipramine: level 2, 3 and 4 stereotypies, Example 130b: usage of available space or stereotypy index), the “locomotor stereotypies (stereotypy index)” value is “reduction”. For the same compound, in the series on male Sprague Dawley rats (setting [4]), the “body weight (gain)” value is “significantly reduced”, the fluid intake entry is listed as “significantly reduced” and the food intake result is reported as “significantly reduced”.
